Earlier results, collected in publication PMC10458458, “Characterization of Anticancer Effects of the Analogs of DJ4, a Novel Selective Inhibitor of ROCK and MRCK Kinases” (Pharmaceuticals, 2023).

What was measured:
HeLa cells = tested on: HeLa cells; parameters: method as in PMID 10779382; conditions: >100 µM; cited from earlier work
astrocytes = tested on: astrocytes; parameters: method as in PMID 22929997; conditions: 10 µM; cited from earlier work

C[C@@H](N)[C@H]1CC[C@H](C(=O)Nc2ccncc2)CC1 [Compound Y27632, Y27632]
effect on cytokinesis (HeLa cells): impaired cytokinesis
effect on proliferation and cell cycle (astrocytes): promoted proliferation and progression of the cell cycle
